One data set relates to SART stressed mouse. Kind of data set: Test for analgesic effect (1): SART stressed mouse, modified Randall-Selitto tail pressure method. It is filed as in vivo, mice. The settings on record: for Analgesic coefficient: 25 ng per mouse into the lateral ventricle, 30 minutes after administration, pain threshold of test group divided by that of SART control group, 1.0 = no effect.

A further data set concerns mice. In words: Test for analgesic effect (4): acetic acid writhing test. The conditions noted are these: oral single dose; 0.7% acetic acid i.p. 25 minutes after; writhing numbers during 10 minutes. Type of data set: in vivo. Here is the method:
The compounds of the present invention or the carboxylic acid type thereof were orally administered to mice and a test for an analgesic effect was carried out by means of an acetic acid writhing test. As to the test animals, male mice of ddY strain of four weeks age were subjected to a preliminary breeding and they were used where one group comprised ten mice. Each of the compound of the present invention or the carboxylic acid type thereof as a test substance was orally administered in a single dose while, to a control group, distilled water (water for injection) was administered similarly. After 25 minutes from the administration of the test substance, a 0.7% acetic acid/physiological saline was intraperitoneally administered at the dose of 10 mL/kg. From 5 minutes thereafter, writhing numbers during 10 minutes were counted and a suppressive rate for each mouse was calculated according to the following formula. Suppressive Rate (%)=[(Mean writhing numbers of the control group)−(Writhing numbers of each mouse)]÷[Mean writhing numbers of the control group]×100
On the technique in general: In writhing tests, fewer writhes than in controls are read as antinociception.

The nature of data set [1]: Test of kinetics in blood of rats. Type of data set: in vivo. The protocol: Each of the compound of the present invention and the carboxylic acid type A thereof was dissolved in DMSO, diluted with water. A sample solution (1% DMSO solution) made into 2 mg/mL was orally administered in a single dose to the fasted Wistar strain SPF male rats of seven weeks age using a stomach tube (10 mg/5 mL/kg). At the stages of 0.25, 0.5, 1, 2, 4 and 8 hour(s) after the administration, about 150 μL of the blood was collected from tail vein using a capillary to which heparin was added and said capillary was centrifuged to collect the plasma. Protein was removed from the plasma sample and the supernatant liquid was diluted to prepare each sample solution for the measurement.

Details of data set [2]: species or system cynomolgus monkeys. The settings on record: cynomolgus monkey, in vivo, 30 mg/kg. The protocol:
Each of the compound of the present invention and Carboxylic acid type A thereof dissolved or suspended in a hydrochloric acid solution was diluted with water. […] At the stages of before the administration and of 0.25, 0.5, 1, 2, 4, 8 and 24 hour(s) after the administration, the blood was collected from femoral vein using a syringe to which heparin was added followed by subjecting to centrifugation to collect the plasma. Collection of the blood was conducted for three times in total where one collection was done with each blank term of six days for each test substance. Concentration of Carboxylic acid type A in each of the collected plasma samples was quantified by an LC-MS and Cmax (maximum drug concentration in plasma) and AUC (area under blood concentration time curve; 0 to ∞ hour(s)) of the compound of the present invention and Carboxylic acid type A thereof were calculated.

The next data set has as its system Chung model rat. Kind of data set: Test for analgesic effect (2)/(3): Chung model rat, mechanical allodynia by von Frey filament. It is filed as in vivo, rats. Here is the method:
A test for analgesic effect was conducted using a Chung model rat which is a neuropathic pain model. As to the test animal, male rats of Wistar strain of nine weeks age were used and model rats were prepared in accordance with the method of Kim and Chung (Pain, vol. 50, pages 355 to 363, 1992). Thus, under anesthetization with pentobarbital (40 mg/kg, intraperitoneal administration), rat L5 spinal nerve was exposed and L5 dorsal root ganglion periphery side was strongly ligated using 5-0 silk yarn. The animals were placed in a transparent acrylate cage whose bottom was made of wire net, a 50% reaction threshold value was calculated by an up-down method using a von Frey filament (manufactured by North Coast Medical Inc.) according to the methods of Chaplan, et al. (J. Neurosci. Method, vol. 53, pages 55 to 63, 1994) and by Lee, et al. (J. Neurophysiol., vol. 81, pages 2226 to 2233, 1999) and measurement of allodynia was conducted. Before injury of spinal nerve, the 50% reaction threshold value was measured twice and the animals where the threshold value was outside the standard were excluded from the operation for spinal nerve injury. […] Those test animals were made into groups of seven animals so that the mean value of 50% reaction threshold after 28 days from the nerve injury as an index became nearly the same in each group.
The carboxylic acid type of the compounds of the present invention as a test substance was intraperitoneally administered in a single dose while, a 0.5% CMC-Na/physiological saline solution was administered similarly to a nerve injury control group. After 30 minutes from the administration of the test substance, allodynia was measured to calculate a 50% reaction threshold value. With regard to a significance test, Paired t-test was conducted for comparison between before and after the nerve injury and Dunnett's multiple comparison test was used for comparison among multiple groups of the nerve injury control group and the test substance administration group.
According to the same manner as in the above Test for Analgesic Effect (2), each of Compound 12 of the present invention (3 mg/kg, 10 mg/kg) and Carboxylic acid substance A of the compound of the present invention (10 mg/kg) was orally administered in a single dose as the test substance to Chung model rats. Allodynia after 0, 15, 30, 60 and 120 minutes from the administration was measured for each of the test substance administration group and the nerve injury control group whereupon a 50% reaction threshold value was calculated.

Molecules are shown by their SMILES. Where two headings read alike, the source gives them in different places.

A word on the AUC: it is the area under the concentration-time curve, a measure of exposure. The term Cmax denotes the highest concentration seen after dosing.

As for `NCCC(=O)N[C@@H](Cc1cnc[nH]1)C(=O)O` [carnosine, β-ananyl-L-histidine, reference compound], in the data set with SART stressed mouse (administration into the lateral ventricle), the analgesic action entry was “no significant analgesic action”.

Take `CC(C)=CC(=O)N[C@@H](Cc1cncn1C)C(=O)O` [Carboxylic acid type E, N^α-3-metylcrotonoyl-N^π-methyl-L-histidine]: the “Suppressive Rate (%)” value in the data set on mice came out at 17.8%.

Regarding `C=CC(=O)N[C@@H](Cc1cncn1C)C(=O)OCCCC` [Compound 6, N^α-acryloyl-N^π-methyl-L-histidine butyl ester], in data set [1] (rat, in vivo, po, 10 mg/kg), the exposure (AUC) was 2774.6 ng·h/mL and the “Cmax” value is given as 2407.2 ng/mL.

Regarding `C=CC(=O)N[C@@H](Cc1cncn1C)C(=O)OC(C)OC(=O)OC1CCCCC1` (stereo partly drawn) [Compound 17, N^α-acryloyl-N^π-methyl-L-histidine 1-(cyclohexyloxycarbonyloxy)ethyl ester], in data set [1] (rat, in vivo, po, 10 mg/kg), the “AUC” value was found to be 2704.9 ng·h/mL and the “Cmax” value is reported as 2044.3 ng/mL.

As to `C=CC(=O)N[C@@H](Cc1cncn1C)C(=O)OCCC(C)(C)C` [Compound 5, N^α-acryloyl-N^π-methyl-L-histidine 3,3-dimethylbutyl ester], in data set [1] (rat, in vivo, po, 10 mg/kg), the exposure (AUC) was determined as 3264.2 ng·h/mL and the maximum concentration (Cmax) stood at 2761.6 ng/mL.

In the data set on SART stressed mouse, `CC=CC(=O)N[C@@H](Cc1cncn1C)C(=O)O` [Carboxylic acid type B, N^α-crotonoyl-N^π-methyl-L-histidine] gave an Analgesic coefficient of 1.23.

As for `C=CC(=O)N[C@@H](Cc1cncn1C)C(=O)OC(c1ccccc1)c1ccccc1` [Compound 24, N^α-acryloyl-N^π-methyl-L-histidine diphenylmethyl ester], in data set [1] (rat, in vivo, po, 10 mg/kg), the “AUC” value came out at 2614.2 ng·h/mL and the “Cmax” value is listed as 1495.3 ng/mL.

Consider `C=CC(=O)N[C@@H](Cc1cncn1C)C(=O)OCCC(C)C` [Compound 4, N^α-acryloyl-N^π-methyl-L-histidine isopentyl ester], for which, in data set [1] (rat, in vivo, po, 10 mg/kg), the “AUC” value is 2641.8 ng·h/mL and the maximum concentration (Cmax) was determined as 2144.0 ng/mL.

Regarding `CCn1cncc1C[C@H](NC(=O)C=Cc1ccccc1)C(=O)O` [Carboxylic acid type C, N^α-3-phenylpropenoyl-N^π-ethyl-L-histidine], in the data set on SART stressed mouse, the Analgesic coefficient is 1.14. In addition, the “Suppressive Rate (%)” value with mice is reported as 27.7%.

As to `C=CC(=O)N[C@@H](Cc1cncn1C)C(=O)OC` [Compound 1, N^α-acryloyl-N^π-methyl-L-histidine methyl ester], in data set [1] (rat, in vivo, po, 10 mg/kg), the “AUC” value was 2027.6 ng·h/mL and the maximum concentration (Cmax) worked out at 1623.9 ng/mL.

As to `C=CC(=O)N[C@@H](Cc1cncn1C)C(=O)OCC(C)(C)C` [Compound 3, N^α-acryloyl-N^π-methyl-L-histidine neopentyl ester], the “AUC” value in data set [1] (rats, oral 10 mg/kg single dose, 0 to 8 hours, Carboxylic acid type A quantified in plasma, values converted to dose equimolar to Carboxylic acid type A) stood at 2373.9 ng·h/mL. Further, the “Cmax” value in data set [1] (rats, oral 10 mg/kg single dose, Carboxylic acid type A quantified in plasma, values converted to dose equimolar to Carboxylic acid type A) is listed as 2074.0 ng/mL.

For the molecule `C=CC(=O)N[C@@H](Cc1cncn1C)C(=O)OCCc1ccc(C)cc1` [Compound 14, N^α-acryloyl-N^π-methyl-L-histidine 4-methylphenethyl ester], in data set [2], the “AUC” value came out at 5133.2 ng·h/mL and the “Cmax” value stood at 779.2 ng/mL.

As to `C=CC(=O)N[C@@H](Cc1cncn1C)C(=O)OCCc1ccc(Cl)cc1` [Compound 15, N^α-acryloyl-N^π-methyl-L-histidine 4-chlorophenethyl ester], in data set [1] (rat, in vivo, po, 10 mg/kg), the “AUC” value worked out at 3620.6 ng·h/mL and the “Cmax” value is 2391.8 ng/mL.

With `C=CC(=O)N[C@@H](Cc1cncn1C)C(=O)OCCc1ccc(C(C)(C)C)cc1` [Compound 16, N^α-acryloyl-N^π-methyl-L-histidine 4-tert-butylphenethyl ester], in data set [1] (rat, in vivo, po, 10 mg/kg), the “AUC” value is 3601.8 ng·h/mL and the “Cmax” value amounted to 2562.7 ng/mL.

Regarding `C=CC(=O)N[C@@H](Cc1cncn1C)C(=O)OCc1ccc(Cl)cc1` [Compound 10, N^α-acryloyl-N^π-methyl-L-histidine 4-chlorobenzyl ester], in data set [1] (rat, in vivo, po, 10 mg/kg), the “AUC” value came to 3747.0 ng·h/mL and the “Cmax” value came out at 2579.9 ng/mL.

With `C=CC(=O)N[C@@H](Cc1cncn1Cc1ccccc1)C(=O)O` [Carboxylic acid type D, N^α-acryloyl-N^π-benzyl-L-histidine], the “threshold as compared with the nerve injury control group” value in the data set with Chung model rat (intraperitoneal single dose) is recorded as “significant increase in the threshold”. In the data set on Chung model rat (intraperitoneally 400 μg/kg single dose, 30 minutes after administration), the “50% reaction threshold value” came out at 7.32 g. Moreover, the “Suppressive Rate (%)” value in the data set with mice was 37.9%.

With `C=CC(=O)N[C@@H](Cc1cncn1C)C(=O)OCc1ccc(C)cc1` [Compound 9, N^α-acryloyl-N^π-methyl-L-histidine 4-methylbenzyl ester], in data set [1] (rat, in vivo, po, 10 mg/kg), the “AUC” value worked out at 3750.7 ng·h/mL and the “Cmax” value was 2671.7 ng/mL.

Regarding `C=CC(=O)N[C@@H](Cc1cncn1C)C(=O)OCC` [Compound 2, N^α-acryloyl-N^π-methyl-L-histidine ethyl ester], in data set [1] (rat, in vivo, po, 10 mg/kg), the “AUC” value is 3468.0 ng·h/mL and the “Cmax” value was determined as 2719.4 ng/mL.

For `Cl.Cn1cncc1C[C@H](NC(=O)C=Cc1ccccc1O)C(=O)OCCc1ccccc1` [Compound 26, N^α-[3-(2-hydroxyphenyl)acryloyl]-N^π-methyl-L-histidine phenethyl ester hydrochloride], in the data set with mice, the “Suppressive Rate (%)” value is 23.8%.

In the case of `C=CC(=O)N[C@@H](Cc1cncn1C)C(=O)OCCc1ccccc1` [Compound 12, N^α-acryloyl-N^π-methyl-L-histidine phenethyl ester], in data set [2], the exposure (AUC) worked out at 8099.0 ng·h/mL and the “Cmax” value was determined as 4088.2 ng/mL. In addition, in data set [1] (rat, in vivo, po, 10 mg/kg), the area under the curve (AUC) turned out to be 3971.6 ng·h/mL and the “Cmax” value turned out to be 3111.6 ng/mL. Besides, the “anti-allodynia action as compared with the nerve injury control group” value in the data set with Chung model rat (oral single dose (Compound 12: 3 and 10 mg/kg; Carboxylic acid type A: 10 mg/kg), 15, 30 and 60 minutes after administration, FIG. 1) is recorded as “significant anti-allodynia action”. Further, in the data set on Chung model rat (oral, 10 mg/kg), the “anti-allodynia action compared with Carboxylic acid type A in the same dose” value is listed as “stronger anti-allodynia action”.

For the molecule `C=CC(=O)N[C@@H](Cc1cncn1C)C(=O)OCc1ccc(C(C)(C)C)cc1` [Compound 11, N^α-acryloyl-N^π-methyl-L-histidine 4-tert-butylbenzyl ester], in data set [1] (rat, in vivo, po, 10 mg/kg), the “AUC” value amounted to 4234.6 ng·h/mL and the “Cmax” value was determined as 2207.4 ng/mL.

As for `C=CC(=O)N[C@@H](Cc1cncn1C)C(=O)OCCc1ccc(OC)cc1` [Compound 13, N^α-acryloyl-N^π-methyl-L-histidine 4-methoxyphenethyl ester], in data set [1] (rat, in vivo, po, 10 mg/kg), the “AUC” value is 4058.3 ng·h/mL and the “Cmax” value amounted to 3163.4 ng/mL.

The record behind these values is patent US8324261B2, “Histidine derivatives” (Nippon Zoki Pharmaceutical Co., Ltd., priority 2007, dated 2012).
